Experimental data taken from patent publication US20130165440A1, “JAK1 Inhibitors” (EXELIXIS, INC., priority 2010, published 2013).
pIC50: −log10 of the molar value.

Biological target: T1, recombinant JAK1 enzyme (Homo sapiens, UniProt P23458)
T1 construct: 8 nM of recombinant JAK1 enzyme (Insect expressed: V866-K1155); host or cells: insect cells
Assay: JAK1 Kinase Assay (luciferase-luciferin-coupled chemiluminescence, ATP consumption)
Format: biochemical
Conditions: 8 nM JAK1 (V866-K1155), 30 μM IRS-1 peptide (Y608), 2 μM ATP, 2 hours ambient temperature, KinaseGlo; read-out: JAK1 IRS-1tide Chemilum (IC50)
Experimental: JAK1 Kinase Assay Used to Test Compounds
JAK1 Kinase activity was measured as the percent of ATP consumed following the kinase reaction using luciferase-luciferin-coupled chemiluminescence. The reaction was conducted in white medium binding 384-well microtiter plates. The kinase reaction were initiated by combining test compounds, 8 nM of recombinant JAK1 enzyme (Insect expressed: V866-K1155), 30 μM of IRS-1 peptide (Y608) and 2 μM ATP in buffer containing 20 mM Hepes (pH 7.5), 10 mM MgCl2, 0.01% Brij, 5% glycerol and 1 mM DTT in a 20 μL volume. The reaction mixture was incubated at ambient temperature for 2 hours. Following the kinase reaction, a 20 μL aliquot of KinaseGlo was added to stop the reaction and measure remaining ATP via detection of chemiluminescence using the Envison reader. Total ATP consumption was limited to 25-60%.

T1 sequence (P23458 865-1154 limits assumed): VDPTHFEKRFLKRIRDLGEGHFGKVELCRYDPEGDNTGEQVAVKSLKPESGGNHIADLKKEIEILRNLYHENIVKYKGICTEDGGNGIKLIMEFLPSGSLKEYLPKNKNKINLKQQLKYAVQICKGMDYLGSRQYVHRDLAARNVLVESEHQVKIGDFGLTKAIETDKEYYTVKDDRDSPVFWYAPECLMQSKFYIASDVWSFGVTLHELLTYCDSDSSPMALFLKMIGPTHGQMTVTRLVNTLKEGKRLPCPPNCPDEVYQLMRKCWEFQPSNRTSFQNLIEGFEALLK

pIC50 | Compound
6.00 to 6.30 | COC(=O)c1ccc(-c2nnc(Nc3ccc(OC)c(C(F)(F)F)c3)c3ccccc23)cc1 [Compound 34, methyl 4-(4-{[4-(methyloxy)-3-(trifluoromethyl)phenyl]amino}phthalazin-1-yl)benzoate]
4.52 to 5.70 | O=C(O)c1ccc(-c2nnc(Nc3cc(C(F)(F)F)cc(C(F)(F)F)c3)c3ccccc23)cc1 [Compound 40, 4-(4-{[3,5-bis(trifluoromethyl)phenyl]amino}phthalazin-1-yl)benzoic acid]
4.52 to 5.70 | CC(=O)c1cccc(-c2nnc(Nc3cc(C(F)(F)F)cc(C(F)(F)F)c3)c3ccccc23)c1 [Compound 50, 1-[3-(4-{[3,5-bis(trifluoromethyl)phenyl]amino}phthalazin-1-yl)phenyl]ethanone]
≥ 6.82 | Nc1n[nH]c2cc(-c3nnc(Nc4cc(C(F)(F)F)cc(C(F)(F)F)c4)c4ccccc34)ccc12 [Compound 38, 4-(3-amino-1H-indazol-6-yl)-N-[3,5-bis(trifluoromethyl)phenyl]phthalazin-1-amine]
6.30 to 6.82 | Cc1n[nH]c2cc(-c3nnc(Nc4cc(C(F)(F)F)cc(C(F)(F)F)c4)c4ccccc34)ccc12 [Compound 56, N-[3,5-bis(trifluoromethyl)phenyl]-4-(3-methyl-1H-indazol-6-yl)phthalazin-1-amine]
4.52 to 5.70 | COC(=O)c1ccc(-c2nnc(Nc3cccc(N(C)C)c3)c3ccccc23)cc1 [Compound 63, methyl 4-(4-{[3-(dimethylamino)phenyl]amino}phthalazin-1-yl)benzoate]
≥ 6.82 | O=c1[nH]ccn1-c1ccc(-c2nnc(Nc3cc(C(F)(F)F)cc(C(F)(F)F)c3)c3ccccc23)cc1 [Compound 5, 1-[4-(4-{[3,5-bis(trifluoromethyl)phenyl]amino}phthalazin-1-yl)phenyl]-1,3-dihydro-2H-imidazol-2-one]
≥ 6.82 | FC(F)(F)c1cc(Nc2nnc(-c3ccc4cn[nH]c4c3)c3ccccc23)cc(C(F)(F)F)c1 [Compound 33, N-[3,5-bis(trifluoromethyl)phenyl]-4-(1H-indazol-6-yl)phthalazin-1-amine]
6.30 to 6.82 | COC(=O)c1ccc(-c2nnc(Nc3cccc(Br)c3)c3ccccc23)cc1 [Compound 51, methyl 4-{4-[(3-bromophenyl)amino]phthalazin-1-yl}benzoate]
6.30 to 6.82 | COC(=O)c1ccc(-c2nnc(Nc3cc(Br)cc(C(F)(F)F)c3)c3ccccc23)cc1 [Compound 44, methyl 4(4-{[3-bromo-5-(trifluoromethyl)phenyl]amino}phthalazin-1-yl)benzoate]
6.30 to 6.82 | COC(=O)c1ccc(-c2nnc(Nc3cc(OCCN(C)C)cc(C(F)(F)F)c3)c3ccccc23)cc1 [Compound 10, methyl 4-(4-{[3-{[2-(dimethylamino)ethyl]oxy}-5-(trifluoromethyl)phenyl]amino}phthalazin-1-yl)benzoate]
6.30 to 6.82 | COC(=O)c1ccc(-c2nnc(Nc3cc(F)cc(C(F)(F)F)c3)c3ccccc23)cc1 [Compound 35, methyl 4-(4-{[3-fluoro-5-(trifluoromethyl)phenyl]amino}phthalazin-1-yl)benzoate]
6.00 to 6.30 | COC(=O)c1ccc(-c2nnc(Nc3cc(CCN(C)C)cc(C(F)(F)F)c3)c3ccccc23)cc1 [Compound 60, methyl 4-[4-({3-[2-(dimethylamino)ethyl]-5-(trifluoromethyl)phenyl}amino)phthalazin-1-yl]benzoate]
4.52 to 5.70 | CNc1nnc(-c2ccc(-c3nnc(Nc4cc(C(F)(F)F)cc(C(F)(F)F)c4)c4ccccc34)cc2)s1 [Compound 1, N-[3,5-bis(trifluoromethyl)phenyl]-4-{4-[5-(methylamino)-1,3,4-thiadiazol-2-yl]phenyl}phthalazin-1-amine]
6.00 to 6.30 | CC(=O)Nc1ccc(-c2nnc(Nc3cc(C(F)(F)F)cc(C(F)(F)F)c3)c3ccccc23)cc1 [Compound 28, N-[4-(4-{[3,5-bis(trifluoromethyl)phenyl]amino}phthalazin-1-yl)phenyl]acetamide]
4.52 to 5.70 | COC(=O)c1ccc(-c2nnc(Nc3cc(C(F)(F)F)cc(C(F)(F)F)c3)c3ccccc23)s1 [Compound 17, methyl 5-(4-{[3,5-bis(trifluoromethyl)phenyl]amino}phthalazin-1-yl)thiophene-2-carboxylate]
6.00 to 6.30 | COC(=O)c1ccc(-c2nnc(Nc3cc(C(F)(F)F)cc(C(F)(F)F)c3)c3ccccc23)c(C)c1 [Compound 64, methyl 4-(4-{[3,5-bis(trifluoromethyl)phenyl]amino}phthalazin-1-yl)-3-methylbenzoate]
≥ 6.82 | COC(=O)c1ccc(-c2nnc(Nc3cc(C)cc(C(F)(F)F)c3)c3ccccc23)cc1 [Compound 65, methyl 4-(4-{[3-methyl-5-(trifluoromethyl)phenyl]amino}phthalazin-1-yl)benzoate]
4.52 to 5.70 | COC(=O)c1ccc(-c2nnc(Nc3cccc(C#N)c3)c3ccccc23)cc1 [Compound 54, methyl 4-{4-[(3-cyanophenyl)amino]phthalazin-1-yl}benzoate]

pIC50 | Compound
4.52 to 5.70 | O=C1CCCN1c1ccc(-c2nnc(Nc3cc(C(F)(F)F)cc(C(F)(F)F)c3)c3ccccc23)cc1 [Compound 48, 1-[4-(4-{[3,5-bis(trifluoromethyl)phenyl]amino}phthalazin-1-yl)phenyl]pyrrolidin-2-one]
≥ 6.82 | O=C1NCCN1c1ccc(-c2nnc(Nc3cc(C(F)(F)F)cc(C(F)(F)F)c3)c3ccccc23)cc1 [Compound 23, 1-[4-(4-{[3,5-bis(trifluoromethyl)phenyl]amino}phthalazin-1-yl)phenyl]imidazolidin-2-one]
6.00 to 6.30 | COC(=O)c1ccc(-c2nnc(Nc3cc(CN(C)C)cc(C(F)(F)F)c3)c3ccccc23)cc1 [Compound 30, methyl 4-[4-({3-[(dimethylamino)methyl]-5-(trifluoromethyl)phenyl}amino)phthalazin-1-yl]benzoate]
6.30 to 6.82 | CCc1cccc(Nc2nnc(-c3ccc(C(=O)OC)cc3)c3ccccc23)c1 [Compound 21, methyl 4-{4-[(3-ethylphenyl)amino]phthalazin-1-yl}benzoate]
4.52 to 5.70 | O=Cc1ccc(-c2nnc(Nc3cc(C(F)(F)F)cc(C(F)(F)F)c3)c3ccccc23)cc1 [Compound 18, 4-(4-{[3,5-bis(trifluoromethyl)phenyl]amino}phthalazin-1-yl)benzaldehyde]
6.00 to 6.30 | COC(=O)c1ccc(-c2nnc(Nc3cc(OC)cc(C(F)(F)F)c3)c3ccccc23)cc1 [Compound 32, methyl 4-(4-{[3-(methyloxy)-5-(trifluoromethyl)phenyl]amino}phthalazin-1-yl)benzoate]
6.30 to 6.82 | COC(=O)c1ccc(-c2nnc(Nc3cccc(C(F)(F)F)c3)c3cnccc23)cc1 [Compound 29, methyl 4-(4-{[3-(trifluoromethyl)phenyl]amino}pyrido[3,4-d]pyridazin-1-yl)benzoate]
6.00 to 6.30 | COC(=O)c1ccc(-c2nnc(Nc3cccc(C(C)C)c3)c3cnccc23)cc1 [Compound 57, methyl 4-(4-{[3-(1-methylethyl)phenyl]amino}pyrido[3,4-d]pyridazin-1-yl)benzoate]
4.52 to 5.70 | COC(=O)c1ccc(-c2nnc(Nc3cc(C(=O)OC)cc(C(F)(F)F)c3)c3ccccc23)cc1 [Compound 15, methyl 3-[(4-{4-[(methyloxy)carbonyl]phenyl}phthalazin-1-yl)amino]-5-(trifluoromethyl)benzoate]
6.00 to 6.30 | COC(=O)c1ccc(-c2nnc(Nc3ccc(F)c(C(F)(F)F)c3)c3ccccc23)cc1 [Compound 53, methyl 4-(4-{[4-fluoro-3-(trifluoromethyl)phenyl]amino}phthalazin-1-yl)benzoate]
≥ 6.82 | COC(=O)c1ccc(-c2nnc(Nc3cc(Cl)cc(C(F)(F)F)c3)c3ccccc23)cc1 [Compound 14, methyl 4-(4-{[3-chloro-5-(trifluoromethyl)phenyl]amino}phthalazin-1-yl)benzoate]
6.30 to 6.82 | COC(=O)c1ccc(-c2nnc(Nc3cccc(C(C)C)c3)c3ccccc23)cc1 [Compound 62, methyl 4-(4-{[3-(1-methylethyl)phenyl]amino}phthalazin-1-yl)benzoate]
5.70 to 6.00 | FC(F)(F)c1cc(Nc2nnc(-c3ccc4nn[nH]c4c3)c3ccccc23)cc(C(F)(F)F)c1 [Compound 45, 4-(1H-1,2,3-benzotriazol-6-yl)-N-[3,5-bis(trifluoromethyl)phenyl]phthalazin-1-amine]
6.00 to 6.30 | COC(=O)c1ccc(-c2nnc(Nc3cccc(C(C)(C)C)c3)c3ccccc23)cc1 [Compound 4, methyl 4-(4-{[3-(1,1-dimethylethyl)phenyl]amino}phthalazin-1-yl)benzoate]
≥ 6.82 | COC(=O)c1ccc(-c2nnc(Nc3cccc(C(F)(F)F)c3)c3ccccc23)cc1 [Compound 58, methyl 4-(4-{[3-(trifluoromethyl)phenyl]amino}phthalazin-1-yl)benzoate]
4.52 to 5.70 | COC(=O)c1ccc(-c2nnc(Nc3cccc(C(F)(F)F)c3)c3ncccc23)cc1 [Compound 39, methyl 4-(8-{[3-(trifluoromethyl)phenyl]amino}pyrido[2,3-d]pyridazin-5-yl)benzoate]
6.00 to 6.30 | COC(=O)c1ccc(-c2nnc(Nc3cccc(C(F)(F)F)c3)c3cccnc23)cc1 [Compound 13]
≥ 6.82 | COC(=O)c1ccc(-c2nnc(Nc3cc(CCCN(C)C)cc(C(F)(F)F)c3)c3ccccc23)cc1 [Compound 22, methyl 4-[4-({3-[3-(dimethylamino)propyl]-5-(trifluoromethyl)phenyl}amino)phthalazin-1-yl]benzoate]
